Test system: CD34^+CD38^− cells
Assay: Expansion of CD34+CD38− cells from human cord blood-derived CD34+ cells (Example 2)
Type: cell-based
Conditions: Homo sapiens, 168 h, 1 μg/mL compound, 50 ng/mL SCF, StemSpan SFEM, 7 days; based on number of CD34+CD38− cells in the absence of compound; read-out: Expansion efficiency
Method: The human cord blood-derived CD34^+ cells collected or purchased in Example 1 were plated on a 24-well plate (TPP) (10000 cells/1/mL/well). As the culture medium, StemSpan SFEM (Stemcell Technologies) containing 50 ng/mL SCF (Peprotech) was used, and Compounds No. 1 to 133 dissolved in dimethyl sulfoxide were added in an amount of 0.1% (v/v) to a final concentration of 1 μg/mL.
After the cells were incubated in liquid culture at 37° C. for 7 days in a CO2 incubator (5% CO2), the number of viable cells was counted by trypan blue assay. The number of CD34^+CD38^− cells was calculated as follows. After the incubation, the cells in the liquid culture was stained with a CD34 antibody (APC, Becton, Dickinson and Company) and a CD38 antibody (PE, Becton, Dickinson and Company), then washed with PBS(−) containing 2% (v/v) FBS and stained with propidium iodide (Sigma-Aldrich Japan) added to a final concentration of 5 μg/mL. The stained cells were analyzed with a flow cytometer JSAN (Bay Bioscience) to determined the proportion of CD34^+CD38^− cells, which was multiplied by the number of viable cells to calculate the number of CD34^+CD38^− cells.
The expansion efficiencies in the presence of 1 μg/mL of compounds based on the number of CD34^+CD38^− cells in the absence of them are shown in Tables 2 and 3 on a scale of A for expansion efficiencies of 10 or greater, B for expansion efficiencies of at least 5 and less than 10, and C for expansion efficiencies of at least 3 and less than 5.

| SMILES | fold induction at 1 µg/mL |
| --- | --- |
| C/C(=N\NC(=O)c1ccc(C(=O)NCc2cc[n+]([O-])cc2)s1)c1csc(-c2ccc(Cl)c(Cl)c2)c1O [compound 3] | ≥ 10 |
| C/C(=N\NC(=O)c1ccc(C(=O)NCc2ccncc2)s1)c1csc(-c2ccc(Cl)c(Cl)c2)c1O [compound 5] | ≥ 10 |
| COc1cc(CNC(=O)c2ccc(C(=O)N/N=C(\C)c3csc(-c4ccc(Cl)c(Cl)c4)c3O)s2)on1 [compound 7] | ≥ 10 |
| C/C(=N\NC(=O)c1ccc(C(=O)NCc2cnccn2)s1)c1csc(-c2ccc(Cl)c(Cl)c2)c1O [compound 8] | ≥ 10 |
| C/C(=N\NC(=O)c1ccc(C(=O)NCCO)s1)c1csc(-c2ccc(Cl)cc2)c1O [compound 10] | ≥ 10 |
| CNC(=O)c1ccc(C(=O)N/N=C(\C)c2csc(-c3ccc(Cl)cc3)c2O)s1 [compound 11] | ≥ 10 |
| C/C(=N\NC(=O)c1ccc(C(=O)NCc2cccs2)s1)c1csc(-c2ccc(Cl)cc2)c1 [compound 12] | ≥ 10 |
| C/C(=N\NC(=O)c1ccc(C(=O)NCc2cc(C)on2)s1)c1csc(-c2ccc(OC(F)(F)F)cc2)c1O [compound 13] | ≥ 10 |
| C/C(=N\NC(=O)c1ccc(C(=O)NCc2cnc(C)cn2)s1)c1csc(-c2ccc(OC(F)(F)F)cc2)c1O [compound 14] | ≥ 10 |
| COc1cc(CNC(=O)c2ccc(C(=O)N/N=C(\C)c3csc(-c4ccc(OC(F)(F)F)cc4)c3O)s2)on1 [compound 15] | ≥ 10 |
| C/C(=N\NC(=O)c1ccc(C(=O)NCc2ccccc2)s1)c1csc(-c2ccc(Cl)c(Cl)c2)c1O [compound 16] | ≥ 10 |
| COc1cc(CNC(=O)c2ccc(C(=O)N/N=C(\C)c3csc(-c4ccc(Cl)cc4)c3O)s2)on1 [compound 17] | ≥ 10 |
| C/C(=N\NC(=O)c1ccc(C(=O)NCc2cc[n+]([O-])cc2)s1)c1csc(-c2ccc(Cl)cc2)c1O [compound 18] | ≥ 10 |
| C/C(=N\NC(=O)c1ccc(C(=O)NCc2cc(C)n(C)n2)s1)c1csc(-c2ccc(Cl)cc2)c1O [compound 19] | ≥ 10 |
| C/C(=N\NC(=O)c1ccc(C(=O)NC2CC2)s1)c1csc(-c2ccc(Cl)c(Cl)c2)c1 [compound 21] | ≥ 10 |
| COCCNC(=O)c1ccc(C(=O)N/N=C(\C)c2csc(-c3ccc(Cl)c(Cl)c3)c2O)s1 [compound 22] | 5 to 10 |
| C/C(=N\NC(=O)c1ccc(C(=O)NCCN2CCOCC2)s1)c1csc(-c2ccc(Cl)c(Cl)c2)c1O [compound 23] | 5 to 10 |
| CCNC(=O)c1ccc(C(=O)N/N=C(\C)c2csc(-c3ccc(Cl)c(Cl)c3)c2O)s1 [compound 24] | 5 to 10 |
| C/C(=N\NC(=O)c1ccc(C(=O)NCc2cccs2)s1)c1csc(-c2ccc(Cl)c(Cl)c2)c1O [compound 25] | 5 to 10 |
| C/C(=N\NC(=O)c1ccc(C(=O)N(C)Cc2ccccc2)s1)c1csc(-c2ccc(Cl)c(Cl)c2)c1O [compound 26] | ≥ 10 |
| CCCCCN(C)C(=O)c1ccc(C(=O)N/N=C(\C)c2csc(-c3ccc(Cl)c(Cl)c3)c2O)s1 [compound 27] | 5 to 10 |
| C/C(=N\NC(=O)c1ccc(C(=O)N(C(C)C)C(C)C)s1)c1csc(-c2ccc(Cl)c(Cl)c2)c1O [compound 28] | ≥ 10 |
| C/C(=N\NC(=O)c1ccc(C(=O)NCCN2CCOCC2)s1)c1csc(-c2ccc(OC(F)(F)F)cc2)c1O [compound 29] | ≥ 10 |
| C/C(=N\NC(=O)c1ccc(C(=O)NCc2cccs2)s1)c1csc(-c2cccc(Cl)c2)c1O [compound 30] | 5 to 10 |
| CCCNC(=O)c1ccc(C(=O)N/N=C(\C)c2csc(-c3ccc(Cl)cc3)c2O)s1 [compound 31] | ≥ 10 |
| C/C(=N\NC(=O)c1ccc(C(=O)NCc2ccccn2)s1)c1csc(-c2ccc(Cl)cc2)c1O [compound 32] | 5 to 10 |
| C/C(=N\NC(=O)c1ccc(C(=O)NCCCN2CCOCC2)s1)c1csc(-c2ccc(Br)cc2)c1O [compound 33] | 5 to 10 |

— US9527828B2, “Method for expanding hematopoietic stem cells using heterocyclic compound” (Nissan Chemical Industries, Ltd., priority 2007, dated 2016)
